Source: US5030427A, “Gallium purification” (Monsanto Company, priority 1988, dated 1991)

Assay: Aqueous solubilities of N-alkylalkano and N-H hydroxamic acids (25° C.)
Format: physicochemical
From the text: It is desirable that the extractant for metals have low solubility in water in order to avoid loss of extractant in aqueous media. In Table 1, the aqueous solubilities of a number of hydroxamic acids are reported.

In the case of `CCCCCCCCCC(=O)N(C)O` [N-methyldecanohydroxamic acid], the “SOLUBILITY (25° C.)” value (aqueous, 25° C.) is reported as 5.48 × 10^-4 molarity.

For `CCCCCCCCC(=O)N(C)O` [N-methylnonanohydroxamic acid], the “aqueous solubility (in words)” value (aqueous media) was “relatively high aqueous solubility”.
